According to ChEMBL document CHEMBL4507304, “Data for DCP probe TP-021” (2021):

Assays:
[1] = target: Serine/threonine-protein kinase RIO1 (Homo sapiens) (UniProt Q9BRS2); conditions: Compound concentration 1000.0 nM
[2] = target: Serine/threonine-protein kinase pim-1 (Homo sapiens) (UniProt P11309); conditions: Compound concentration 1000.0 nM
[3] = target: Homeodomain-interacting protein kinase 1 (Homo sapiens) (UniProt Q86Z02); conditions: Compound concentration 1000.0 nM
[4] = target: Tyrosine-protein kinase Blk (Homo sapiens) (UniProt P51451); conditions: Compound concentration 1000.0 nM
[5] = target: Casein kinase I isoform alpha (Homo sapiens) (UniProt P48729); conditions: Compound concentration 1000.0 nM
[6] = target: RAC-alpha serine/threonine-protein kinase (Homo sapiens) (UniProt P31749); conditions: Compound concentration 1000.0 nM
Rattus norvegicus = species on record: Rattus norvegicus; conditions: Compound concentration 10.0 uM
[7] = target: Serine/threonine-protein kinase PLK4 (Homo sapiens) (UniProt O00444); conditions: Compound concentration 1000.0 nM
[8] = target: Mitogen-activated protein kinase 3 (Homo sapiens) (UniProt P27361); conditions: Compound concentration 1000.0 nM
[9] = target: Ephrin type-A receptor 6 (Homo sapiens) (UniProt Q9UF33); conditions: Compound concentration 1000.0 nM
[10] = tested on: Tyrosine-protein kinase ABL1 (Homo sapiens), P00519 [F317L]; conditions: Compound concentration 1000.0 nM
[11] = target: Tyrosine-protein kinase TXK (Homo sapiens) (UniProt P42681); conditions: Compound concentration 1000.0 nM
[12] = tested on: Mast/stem cell growth factor receptor Kit (Homo sapiens), P10721 [D816V]; conditions: Compound concentration 1000.0 nM
[13] = target: Serine/threonine-protein kinase BRSK1 (Homo sapiens) (UniProt Q8TDC3); conditions: Compound concentration 1000.0 nM
[14] = target: D(1A) dopamine receptor (Homo sapiens) (UniProt P21728); conditions: Compound concentration 10.0 uM
[15] = tested on: Phosphatidylinositol 4,5-bisphosphate 3-kinase catalytic subunit alpha isoform (Homo sapiens), P42336 [H1047L]; conditions: Compound concentration 1000.0 nM
[16] = target: Serine/threonine-protein kinase 16 (Homo sapiens) (UniProt O75716); conditions: Compound concentration 1000.0 nM
[17] = tested on: Phosphatidylinositol 4,5-bisphosphate 3-kinase catalytic subunit alpha isoform (Homo sapiens), P42336 [M1043I]; conditions: Compound concentration 1000.0 nM
[18] = target: Ribosomal protein S6 kinase alpha-2 (Homo sapiens) (UniProt Q15349); conditions: Compound concentration 1000.0 nM
[19] = tested on: Epidermal growth factor receptor (Homo sapiens), P00533 [UNDEFINED MUTATION]; conditions: Compound concentration 1000.0 nM
[20] = target: Receptor tyrosine-protein kinase erbB-2 (Homo sapiens) (UniProt P04626); conditions: Compound concentration 1000.0 nM
[21] = target: NT-3 growth factor receptor (Homo sapiens) (UniProt Q16288); conditions: Compound concentration 1000.0 nM
[22] = target: Phosphatidylinositol 5-phosphate 4-kinase type-2 beta (Homo sapiens) (UniProt P78356); conditions: Compound concentration 1000.0 nM
[23] = target: Serine/threonine-protein kinase VRK2 (Homo sapiens) (UniProt Q86Y07); conditions: Compound concentration 1000.0 nM
[24] = target: Cyclin-dependent kinase-like 5 (Homo sapiens) (UniProt O76039); conditions: Compound concentration 1000.0 nM
[25] = target: Serine/threonine-protein kinase PAK 2 (Homo sapiens) (UniProt Q13177); conditions: Compound concentration 1000.0 nM
[26] = tested on: Phosphatidylinositol 4,5-bisphosphate 3-kinase catalytic subunit alpha isoform (Homo sapiens), P42336 [E545K]; conditions: Compound concentration 1000.0 nM
[27] = target: Serine/threonine-protein kinase Nek7 (Homo sapiens) (UniProt Q8TDX7); conditions: Compound concentration 1000.0 nM
[28] = target: Serine/threonine-protein kinase SIK1 (Homo sapiens) (UniProt P57059); conditions: Compound concentration 1000.0 nM
[29] = target: Serine/threonine-protein kinase Nek4 (Homo sapiens) (UniProt P51957); conditions: Compound concentration 1000.0 nM
[30] = target: Cyclin-dependent kinase 14 (Homo sapiens) (UniProt O94921); conditions: Compound concentration 1000.0 nM
[31] = target: Phosphatidylinositol 4,5-bisphosphate 3-kinase catalytic subunit gamma isoform (Homo sapiens) (UniProt P48736); conditions: Compound concentration 1000.0 nM
[32] = target: Serine/threonine-protein kinase PLK2 (Homo sapiens) (UniProt Q9NYY3); conditions: Compound concentration 1000.0 nM
[33] = target: Fibroblast growth factor receptor 2 (Homo sapiens) (UniProt P21802); conditions: Compound concentration 1000.0 nM
[34] = target: Cyclin-dependent kinase 11B (Homo sapiens) (UniProt P21127); conditions: Compound concentration 1000.0 nM
[35] = target: Cyclin-dependent kinase 15 (Homo sapiens) (UniProt Q96Q40); conditions: Compound concentration 1000.0 nM
[36] = target: TGF-beta receptor type-2 (Homo sapiens) (UniProt P37173); conditions: Compound concentration 1000.0 nM
[37] = target: Dual specificity protein kinase CLK1 (Homo sapiens) (UniProt P49759); conditions: Compound concentration 1000.0 nM
[38] = target: Ephrin type-B receptor 4 (Homo sapiens) (UniProt P54760); conditions: Compound concentration 1000.0 nM
[39] = target: Serine/threonine-protein kinase Nek5 (Homo sapiens) (UniProt Q6P3R8); conditions: Compound concentration 1000.0 nM
[40] = target: 5-hydroxytryptamine receptor 1E (Homo sapiens) (UniProt P28566); conditions: Compound concentration 10.0 uM
[41] = target: Mitogen-activated protein kinase kinase kinase 11 (Homo sapiens) (UniProt Q16584); conditions: Compound concentration 1000.0 nM
[42] = target: Receptor tyrosine-protein kinase erbB-4 (Homo sapiens) (UniProt Q15303); conditions: Compound concentration 1000.0 nM
[43] = target: cGMP-dependent protein kinase 2 (Homo sapiens) (UniProt Q13237); conditions: Compound concentration 1000.0 nM
[44] = target: Serine/threonine-protein kinase Nek9 (Homo sapiens) (UniProt Q8TD19); conditions: Compound concentration 1000.0 nM

Sequence of Serine/threonine-protein kinase pim-1 (Homo sapiens) (P11309 whole entry, looked up): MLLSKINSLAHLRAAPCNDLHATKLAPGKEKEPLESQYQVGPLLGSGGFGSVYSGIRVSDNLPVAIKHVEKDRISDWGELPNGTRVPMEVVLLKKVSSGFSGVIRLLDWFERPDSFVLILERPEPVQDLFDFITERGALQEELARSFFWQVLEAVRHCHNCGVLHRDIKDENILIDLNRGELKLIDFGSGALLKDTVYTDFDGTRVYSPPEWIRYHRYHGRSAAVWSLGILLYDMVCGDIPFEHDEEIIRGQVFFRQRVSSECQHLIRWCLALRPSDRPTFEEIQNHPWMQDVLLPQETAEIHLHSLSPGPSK
Sequence of Casein kinase I isoform alpha (Homo sapiens) (P48729 2-337 limits assumed): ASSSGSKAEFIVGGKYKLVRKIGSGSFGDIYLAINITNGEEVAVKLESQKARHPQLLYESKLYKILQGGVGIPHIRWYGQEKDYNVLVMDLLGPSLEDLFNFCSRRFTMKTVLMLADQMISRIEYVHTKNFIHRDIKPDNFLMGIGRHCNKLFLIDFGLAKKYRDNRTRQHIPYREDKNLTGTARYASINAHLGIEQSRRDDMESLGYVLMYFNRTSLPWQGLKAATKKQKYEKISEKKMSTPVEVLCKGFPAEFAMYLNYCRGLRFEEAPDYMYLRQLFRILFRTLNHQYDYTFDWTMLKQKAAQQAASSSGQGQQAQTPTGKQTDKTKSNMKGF
Sequence of 5-hydroxytryptamine receptor 1E (Homo sapiens) (P28566 whole entry): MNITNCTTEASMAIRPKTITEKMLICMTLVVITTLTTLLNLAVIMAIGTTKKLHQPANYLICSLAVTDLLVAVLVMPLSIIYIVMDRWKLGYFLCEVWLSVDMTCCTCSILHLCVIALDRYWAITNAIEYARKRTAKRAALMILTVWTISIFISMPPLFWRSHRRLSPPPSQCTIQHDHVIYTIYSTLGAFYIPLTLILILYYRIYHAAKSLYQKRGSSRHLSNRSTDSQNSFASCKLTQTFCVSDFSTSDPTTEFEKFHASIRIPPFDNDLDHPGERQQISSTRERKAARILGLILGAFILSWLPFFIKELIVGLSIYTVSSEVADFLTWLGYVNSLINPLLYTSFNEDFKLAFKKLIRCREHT
Sequence of Phosphatidylinositol 4,5-bisphosphate 3-kinase catalytic subunit gamma isoform (Homo sapiens) (P48736 whole entry, looked up, canonical isoform): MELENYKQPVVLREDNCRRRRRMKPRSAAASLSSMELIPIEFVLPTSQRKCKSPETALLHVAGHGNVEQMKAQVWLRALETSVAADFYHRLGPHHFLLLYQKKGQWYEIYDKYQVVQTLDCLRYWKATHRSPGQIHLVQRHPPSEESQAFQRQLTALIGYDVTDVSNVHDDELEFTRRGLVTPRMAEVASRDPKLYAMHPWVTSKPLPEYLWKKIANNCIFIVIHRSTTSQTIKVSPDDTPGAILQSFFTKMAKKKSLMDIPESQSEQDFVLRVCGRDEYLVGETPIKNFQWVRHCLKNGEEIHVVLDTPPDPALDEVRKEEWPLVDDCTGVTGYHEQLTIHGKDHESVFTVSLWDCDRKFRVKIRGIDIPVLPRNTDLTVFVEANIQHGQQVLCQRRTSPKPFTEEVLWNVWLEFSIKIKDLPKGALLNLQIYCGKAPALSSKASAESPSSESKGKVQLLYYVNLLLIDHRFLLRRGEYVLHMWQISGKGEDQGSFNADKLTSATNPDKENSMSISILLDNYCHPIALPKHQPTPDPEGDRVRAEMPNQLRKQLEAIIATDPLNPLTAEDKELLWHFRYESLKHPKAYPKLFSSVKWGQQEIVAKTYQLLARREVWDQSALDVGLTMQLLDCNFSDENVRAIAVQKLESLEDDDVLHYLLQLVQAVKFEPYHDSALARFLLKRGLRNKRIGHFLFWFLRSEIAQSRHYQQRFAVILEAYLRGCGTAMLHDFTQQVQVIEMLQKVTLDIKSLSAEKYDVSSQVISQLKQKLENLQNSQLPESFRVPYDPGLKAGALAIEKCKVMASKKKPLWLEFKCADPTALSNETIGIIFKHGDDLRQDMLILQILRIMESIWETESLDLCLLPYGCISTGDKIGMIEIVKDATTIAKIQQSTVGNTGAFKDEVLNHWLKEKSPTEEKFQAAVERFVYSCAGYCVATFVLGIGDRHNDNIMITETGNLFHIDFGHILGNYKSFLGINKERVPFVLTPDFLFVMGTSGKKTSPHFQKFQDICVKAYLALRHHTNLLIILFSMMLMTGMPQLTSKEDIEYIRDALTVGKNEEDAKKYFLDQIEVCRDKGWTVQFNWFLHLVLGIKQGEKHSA
Sequence of Phosphatidylinositol 4,5-bisphosphate 3-kinase catalytic subunit alpha isoform (Homo sapiens), P42336 [M1043I] (P42336 whole entry M1043I, canonical isoform): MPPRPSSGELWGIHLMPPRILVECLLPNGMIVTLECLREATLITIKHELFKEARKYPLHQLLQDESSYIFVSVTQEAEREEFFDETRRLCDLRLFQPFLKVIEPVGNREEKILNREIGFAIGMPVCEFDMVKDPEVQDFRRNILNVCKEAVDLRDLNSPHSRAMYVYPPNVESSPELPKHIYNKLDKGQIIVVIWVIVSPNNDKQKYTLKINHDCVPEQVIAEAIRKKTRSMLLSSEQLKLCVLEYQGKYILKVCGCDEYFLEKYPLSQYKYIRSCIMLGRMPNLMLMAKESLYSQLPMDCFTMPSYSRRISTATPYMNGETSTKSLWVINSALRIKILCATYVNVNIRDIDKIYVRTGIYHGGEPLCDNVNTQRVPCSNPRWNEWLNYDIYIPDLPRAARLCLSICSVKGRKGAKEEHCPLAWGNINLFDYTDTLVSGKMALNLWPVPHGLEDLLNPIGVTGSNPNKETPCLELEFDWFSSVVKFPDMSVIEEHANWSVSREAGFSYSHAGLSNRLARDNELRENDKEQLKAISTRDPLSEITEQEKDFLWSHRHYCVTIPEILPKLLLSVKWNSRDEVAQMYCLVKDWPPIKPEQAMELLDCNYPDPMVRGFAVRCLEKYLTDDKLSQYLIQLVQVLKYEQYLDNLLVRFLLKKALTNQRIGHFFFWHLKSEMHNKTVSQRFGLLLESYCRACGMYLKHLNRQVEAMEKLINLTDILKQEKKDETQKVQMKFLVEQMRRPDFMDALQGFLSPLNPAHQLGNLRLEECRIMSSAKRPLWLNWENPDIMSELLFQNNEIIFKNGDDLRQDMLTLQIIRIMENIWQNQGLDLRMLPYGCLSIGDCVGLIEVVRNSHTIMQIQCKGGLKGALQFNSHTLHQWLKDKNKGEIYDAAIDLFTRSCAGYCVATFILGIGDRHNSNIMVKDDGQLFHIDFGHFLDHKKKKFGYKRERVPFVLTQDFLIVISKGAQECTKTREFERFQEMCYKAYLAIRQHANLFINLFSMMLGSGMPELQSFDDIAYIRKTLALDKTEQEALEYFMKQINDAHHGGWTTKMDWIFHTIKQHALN
Sequence of Mitogen-activated protein kinase kinase kinase 11 (Homo sapiens) (Q16584 whole entry, looked up): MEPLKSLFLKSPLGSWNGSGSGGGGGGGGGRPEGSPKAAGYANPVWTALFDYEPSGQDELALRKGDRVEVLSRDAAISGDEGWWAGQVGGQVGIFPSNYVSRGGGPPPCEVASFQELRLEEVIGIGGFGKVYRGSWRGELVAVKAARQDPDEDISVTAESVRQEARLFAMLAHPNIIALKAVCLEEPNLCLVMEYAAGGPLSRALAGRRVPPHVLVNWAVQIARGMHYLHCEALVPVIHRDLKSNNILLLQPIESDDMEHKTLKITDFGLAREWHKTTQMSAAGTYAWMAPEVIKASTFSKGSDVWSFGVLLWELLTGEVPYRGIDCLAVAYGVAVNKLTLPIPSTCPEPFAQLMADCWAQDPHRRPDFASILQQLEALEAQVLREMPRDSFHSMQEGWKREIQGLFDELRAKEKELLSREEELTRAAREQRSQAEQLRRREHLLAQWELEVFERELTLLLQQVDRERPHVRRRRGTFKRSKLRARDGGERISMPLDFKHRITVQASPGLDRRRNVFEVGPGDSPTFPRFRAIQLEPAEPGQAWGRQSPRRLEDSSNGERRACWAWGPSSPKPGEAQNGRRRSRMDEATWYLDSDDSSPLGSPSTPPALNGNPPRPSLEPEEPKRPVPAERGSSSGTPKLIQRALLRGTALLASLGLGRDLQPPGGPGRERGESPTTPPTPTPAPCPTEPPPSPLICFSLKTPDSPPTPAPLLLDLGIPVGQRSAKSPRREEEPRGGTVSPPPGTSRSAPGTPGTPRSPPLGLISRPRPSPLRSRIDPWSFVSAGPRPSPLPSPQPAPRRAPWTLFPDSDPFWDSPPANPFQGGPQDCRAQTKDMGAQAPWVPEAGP
Sequence of Serine/threonine-protein kinase SIK1 (Homo sapiens) (P57059 whole entry): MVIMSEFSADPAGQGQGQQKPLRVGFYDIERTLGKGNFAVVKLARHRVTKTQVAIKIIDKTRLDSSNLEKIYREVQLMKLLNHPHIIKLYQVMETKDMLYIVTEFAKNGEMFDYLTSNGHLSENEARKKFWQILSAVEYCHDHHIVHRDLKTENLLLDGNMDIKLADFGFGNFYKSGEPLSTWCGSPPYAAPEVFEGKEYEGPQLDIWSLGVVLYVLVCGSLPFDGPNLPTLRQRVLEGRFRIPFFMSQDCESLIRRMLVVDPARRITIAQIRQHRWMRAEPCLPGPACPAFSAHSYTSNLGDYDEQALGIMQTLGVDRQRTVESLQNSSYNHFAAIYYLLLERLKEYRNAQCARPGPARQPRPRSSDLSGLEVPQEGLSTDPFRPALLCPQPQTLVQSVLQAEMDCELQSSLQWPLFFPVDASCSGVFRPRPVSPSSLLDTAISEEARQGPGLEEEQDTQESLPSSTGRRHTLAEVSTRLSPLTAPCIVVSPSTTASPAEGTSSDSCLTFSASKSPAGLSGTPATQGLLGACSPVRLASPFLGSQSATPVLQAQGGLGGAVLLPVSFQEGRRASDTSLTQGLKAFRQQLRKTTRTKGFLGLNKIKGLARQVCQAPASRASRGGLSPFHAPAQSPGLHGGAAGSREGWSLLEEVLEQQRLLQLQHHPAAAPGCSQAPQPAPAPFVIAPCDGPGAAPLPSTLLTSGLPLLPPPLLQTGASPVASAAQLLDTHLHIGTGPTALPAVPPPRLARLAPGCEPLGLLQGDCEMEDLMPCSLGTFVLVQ

N#Cc1ccc(Nc2ccc3[nH]c(=O)[nH]c3c2)c(Cl)c1
inactive: residual activity [1] 100% | residual activity [2] 90% | residual activity [3] 82% | residual activity [4] 97% | residual activity [5] 100% | residual activity [6] 67% | inhibition (Rattus norvegicus) 3.22% | residual activity [7] 87% | residual activity [8] 95% | residual activity [9] 82% | residual activity [10] 84% | residual activity [11] 87% | residual activity [12] 88% | residual activity [13] 100% | inhibition [14] -7.86% | residual activity [15] 78% | residual activity [16] 91% | residual activity [17] 100% | residual activity [18] 100% | residual activity [19] 100% | residual activity [20] 100% | residual activity [21] 100% | residual activity [22] 74% | residual activity [23] 100% | residual activity [24] 100% | residual activity [25] 79% | residual activity [26] 79% | residual activity [27] 100% | residual activity [28] 100% | residual activity [29] 100% | residual activity [30] 100% | residual activity [31] 92% | residual activity [32] 86% | residual activity [33] 100% | residual activity [34] 100% | residual activity [35] 94% | residual activity [36] 100% | residual activity [37] 100% | residual activity [38] 98% | residual activity [39] 100% | inhibition [40] 12.6% | residual activity [41] 100% | residual activity [42] 100% | residual activity [43] 87% | residual activity [44] 96%

O=C1CCc2cc(Nc3cc(OC4CCOCC4)c([N+](=O)[O-])cc3Cl)ccc2N1
inactive: residual activity [1] 100% | residual activity [2] 96% | residual activity [3] 95% | residual activity [4] 94% | residual activity [5] 100% | residual activity [6] 98% | inhibition (Rattus norvegicus) 13.4% | residual activity [7] 86% | residual activity [8] 78% | residual activity [9] 80% | residual activity [10] 88% | residual activity [11] 79% | residual activity [12] 100% | residual activity [13] 100% | inhibition [14] 7.4% | residual activity [15] 78% | residual activity [16] 93% | residual activity [17] 94% | residual activity [18] 92% | residual activity [19] 92% | residual activity [20] 100% | residual activity [21] 100% | residual activity [22] 100% | residual activity [23] 100% | residual activity [24] 99% | residual activity [25] 96% | residual activity [26] 79% | residual activity [27] 87% | residual activity [28] 96% | residual activity [29] 100% | residual activity [30] 100% | residual activity [31] 75% | residual activity [32] 92% | residual activity [33] 100% | residual activity [34] 98% | residual activity [35] 73% | residual activity [36] 98% | residual activity [37] 84% | residual activity [38] 100% | residual activity [39] 96% | inhibition [40] 16.5% | residual activity [41] 100% | residual activity [42] 100% | residual activity [43] 85% | residual activity [44] 80%
